Assay results as given in US9682995B2, “Amino-substituted isothiazoles” (BAYER PHARMA AKTIENGESELLSCHAFT, priority 2013, dated 2017).

Assays:
Type in all cases: cell-based
NCI-H460 = test: Proliferation assay (crystal violet), NCI-H460; details: Homo sapiens, 96 h; NCI-H460, 4 days; read-out: Inhibition of proliferation IC50 NCI-H460
In short: (§1)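 Tumour cells seeded at 1000–5000 cells/well in medium with 10% FCS, dosed after 24 h at 0.001–10 μM (0.5% DMSO final) for 4 days. Cell number read by crystal-violet staining after glutaraldehyde fixation (A595), normalised to zero-point plate (0%) and untreated cells (100%); IC50 from 4-parameter fit.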

Caco2 = test: Proliferation assay (crystal violet), Caco2; details: Homo sapiens, Caco-2, 96 h; Caco2, 4 days; read-out: Inhibition of proliferation IC50 Caco2
In short: as §1

HeLa-MaTu-ADR = test: Proliferation assay (crystal violet), HeLa-MaTu-ADR; details: 96 h, 4 days, read-out: Inhibition of proliferation IC50 HeLa-MaTu-ADR
In short: as §1

DU145 = test: Proliferation assay (crystal violet), DU145; details: Homo sapiens, DU-145, 96 h; DU145, 4 days; read-out: Inhibition of proliferation IC50 DU145
In short: as §1

B16F10 = test: Proliferation assay (crystal violet), B16F10; details: Mus musculus, B16-F10, 96 h; B16F10, 4 days; read-out: Inhibition of proliferation IC50 B16F10
In short: as §1

Row | SMILES | IC50 (NCI-H460) | IC50 (Caco2) | IC50 (HeLa-MaTu-ADR) | IC50 (DU145) | IC50 (B16F10)
1 | CCc1ccccc1NC(=O)c1c(C)nsc1Nc1cc(C#N)ccn1 [Example 4, 5-[(4-Cyanopyridin-2-yl)amino]-N-(2-ethylphenyl)-3-methyl-1,2-thiazole-4-carboxamide] | 2000 nM | 2400 nM | 1800 nM | 6900 nM | 2700 nM
2 | Cc1nsc(Nc2cnc3cc(C(F)(F)F)ccc3n2)c1C(=O)Nc1ccc(F)c(F)c1 [Example 60, N-(3,4-Difluorophenyl)-3-methyl-5-{[6-(trifluoromethyl)quinoxalin-2-yl]amino}-1,2-thiazole-4-carboxamide] | 230 nM | 220 nM | 240 nM | 430 nM | 250 nM
3 | Cc1nsc(Nc2ccc(C#N)cn2)c1C(=O)Nc1ccc(Cl)c(Cl)c1 [Example 62, 5-[(5-Cyanopyridin-2-yl)amino]-N-(3,4-dichlorophenyl)-3-methyl-1,2-thiazole-4-carboxamide] | 140 nM | 190 nM | – | 290 nM | 140 nM
4 | Cc1nsc(Nc2cncc(-n3cccn3)n2)c1C(=O)Nc1ccc(F)c(F)c1 [Example 64, N-(3,4-Difluorophenyl)-3-methyl-5-{[6-(1H-pyrazol-1-yl)pyrazin-2-yl]amino}-1,2-thiazole-4-carboxamide] | 260 nM | 720 nM | 270 nM | 470 nM | 470 nM
5 | Cc1nsc(Nc2cncc(-n3cccn3)n2)c1C(=O)Nc1ccc(Cl)c(F)c1 [Example 67, N-(4-Chloro-3-fluorophenyl)-3-methyl-5-{[6-(1H-pyrazol-1-yl)pyrazin-2-yl]amino}-1,2-thiazole-4-carboxamide] | 210 nM | 210 nM | 180 nM | 320 nM | 160 nM
6 | Cc1nsc(Nc2cnc3cc(C(F)(F)F)ccc3n2)c1C(=O)Nc1ccc(Cl)c(F)c1 [Example 68, N-(4-Chloro-3-fluorophenyl)-3-methyl-5-{[6-(trifluoromethyl)quinoxalin-2-yl]amino}-1,2-thiazole-4-carboxamide] | 350 nM | 240 nM | 320 nM | 570 nM | 330 nM
7 | Cc1nsc(Nc2cncc(Cl)n2)c1C(=O)Nc1ccc(F)c(F)c1 [Example 71, 5-[(6-Chloropyrazin-2-yl)amino]-N-(3,4-difluorophenyl)-3-methyl-1,2-thiazole-4-carboxamide] | 180 nM | 240 nM | 230 nM | 430 nM | 220 nM
8 | CCNC(=O)c1cncc(Nc2snc(C)c2C(=O)Nc2ccc(F)c(F)c2)n1 [Example 73, 6-({4-[(3,4-Difluorophenyl)carbamoyl]-3-methyl-1,2-thiazol-5-yl}amino)-N-ethylpyrazine-2-carboxamide] | 620 nM | 320 nM | 100 nM | 510 nM | 390 nM
9 | Cc1nsc(Nc2cnc(Cl)cn2)c1C(=O)Nc1ccc(F)c(F)c1 [Example 74, 5-[(5-Chloropyrazin-2-yl)amino]-N-(3,4-difluorophenyl)-3-methyl-1,2-thiazole-4-carboxamide] | 120 nM | 160 nM | 130 nM | 190 nM | 170 nM
10 | CNC(=O)c1cnc(Nc2snc(C)c2C(=O)Nc2ccc(F)c(F)c2)cn1 [Example 75, 5-({4-[(3,4-Difluorophenyl)carbamoyl]-3-methyl-1,2-thiazol-5-yl}amino)-N-methylpyrazine-2-carboxamide] | 2900 nM | 1300 nM | 530 nM | 2900 nM | 3000 nM
11 | Cc1nsc(Nc2cnc(Br)cn2)c1C(=O)Nc1ccc(F)c(F)c1 [Example 77, 5-[(5-Bromopyrazin-2-yl)amino]-N-(3,4-difluorophenyl)-3-methyl-1,2-thiazole-4-carboxamide] | 180 nM | 180 nM | 94 nM | 280 nM | 220 nM
12 | CCNc1cncc(Nc2snc(C)c2C(=O)Nc2ccc(F)c(F)c2)n1 [Example 78, N-(3,4-Difluorophenyl)-5-{[6-(ethylamino)pyrazin-2-yl]amino}-3-methyl-1,2-thiazole-4-carboxamide] | 3000 nM | 1500 nM | 1100 nM | 3000 nM | 2000 nM
13 | CCc1cnc(Nc2snc(C)c2C(=O)Nc2ccc(F)c(F)c2)cn1 [Example 79, N-(3,4-Difluorophenyl)-5-[(5-ethylpyrazin-2-yl)amino]-3-methyl-1,2-thiazole-4-carboxamide] | 340 nM | 350 nM | 350 nM | 650 nM | 510 nM
14 | Cc1nsc(Nc2cnc(C(F)(F)F)cn2)c1C(=O)Nc1ccc(F)c(F)c1 [Example 81, N-(3,4-Difluorophenyl)-3-methyl-5-{[5-(trifluoromethyl)pyrazin-2-yl]amino}-1,2-thiazole-4-carboxamide] | 240 nM | 210 nM | 230 nM | 680 nM | 200 nM
15 | Cc1nsc(Nc2cncc(C(F)(F)F)n2)c1C(=O)Nc1ccc(F)c(F)c1 [Example 82, N-(3,4-Difluorophenyl)-3-methyl-5-{[6-(trifluoromethyl)pyrazin-2-yl]amino}-1,2-thiazole-4-carboxamide] | 56 nM | 170 nM | 130 nM | 270 nM | 140 nM
16 | Cc1nsc(Nc2ccc(C(F)(F)F)nn2)c1C(=O)Nc1ccc(F)c(F)c1 [Example 83, N-(3,4-Difluorophenyl)-3-methyl-5-{[6-(trifluoromethyl)pyridazin-3-yl]amino}-1,2-thiazole-4-carboxamide] | 260 nM | 350 nM | 370 nM | 740 nM | 250 nM
17 | COc1ccc(NC(=O)c2c(C)nsc2Nc2cncc(C(F)(F)F)n2)cn1 [Example 84, N-(6-methoxypyridin-3-yl)-3-methyl-5-{[6-(trifluoromethyl)pyrazin-2-yl]amino}-1,2-thiazole-4-carboxamide] | 180 nM | 240 nM | 330 nM | 840 nM | 290 nM
18 | COc1ccc(NC(=O)c2c(C)nsc2Nc2cnc(C(F)(F)F)cn2)cn1 [Example 85, N-(6-methoxypyridin-3-yl)-3-methyl-5-{[5-(trifluoromethyl)pyrazin-2-yl]amino}-1,2-thiazole-4-carboxamide] | 420 nM | 370 nM | 360 nM | 700 nM | 500 nM
19 | CCc1ccccc1NC(=O)c1c(C)nsc1Nc1cnc2cc(Cl)ccc2n1 [Example 86, 5-[(6-Chloroquinoxalin-2-yl)amino]-N-(2-ethylphenyl)-3-methyl-1,2-thiazole-4-carboxamide] | 170 nM | 310 nM | 260 nM | 510 nM | 320 nM
